# Measured values from paper PMC8976910, “Novel oxadiazole derivatives as potent inhibitors of α-amylase and α-glucosidase enzymes: Synthesis, in vitro evaluation, and molecular docking studies” (Iranian Journal of Basic Medical Sciences, 2021).
# What was measured:
# α-glucosidase = assay: In vitro alpha-glucosidase inhibitory activity (p-NPG, 400 nm); assay type: biochemical; settings: for % Inhibition (alpha-glucosidase): concentration not stated (test compounds 1-100 μg/ml); for IC50 µg/ml ± SEM (alpha-glucosidase inhibition): p-NPG substrate, 37 °C, test compounds 1-100 μg/ml
# Method: The α-glucosidase inhibitory activity was determined according to a previously reported method with slight modifications([19]). […] A 500 μl solution was prepared by adding 10 μl of test compounds (1-100 μg/ml) and 490 μl of phosphate buffer (pH 6.9). 250 μl of 5mM p-nitrophenyl α-d-glucopyranoside (p-NPG) were added to this reaction mixture and incubated for 10 min at 37 °C. […] The α-glucosidase inhibitory activity was calculated as a measure of p-nitrophenol released from p-NPG. […] The percentage inhibition was calculated using the following formula; % Inhibition = (^Astandard^- Asample) / ^Astandard × 100.
# [1] = target: T1, porcine pancreatic amylase (Sus scrofa, UniProt P00690); assay: In vitro alpha-amylase inhibitory activity (starch/DNS, 540 nm); assay type: biochemical; settings: for % Inhibition (alpha-amylase): concentration not stated (test compounds 1–100 μg/ml); for IC50: porcine pancreatic amylase, pH 6.8, 25 °C, test compounds 1–100 μg/ml, ± SEM, read-out: IC50 µg/ml ± SEM (alpha-amylase inhibition) (converted)
# T1 sequence (P00690 16-511): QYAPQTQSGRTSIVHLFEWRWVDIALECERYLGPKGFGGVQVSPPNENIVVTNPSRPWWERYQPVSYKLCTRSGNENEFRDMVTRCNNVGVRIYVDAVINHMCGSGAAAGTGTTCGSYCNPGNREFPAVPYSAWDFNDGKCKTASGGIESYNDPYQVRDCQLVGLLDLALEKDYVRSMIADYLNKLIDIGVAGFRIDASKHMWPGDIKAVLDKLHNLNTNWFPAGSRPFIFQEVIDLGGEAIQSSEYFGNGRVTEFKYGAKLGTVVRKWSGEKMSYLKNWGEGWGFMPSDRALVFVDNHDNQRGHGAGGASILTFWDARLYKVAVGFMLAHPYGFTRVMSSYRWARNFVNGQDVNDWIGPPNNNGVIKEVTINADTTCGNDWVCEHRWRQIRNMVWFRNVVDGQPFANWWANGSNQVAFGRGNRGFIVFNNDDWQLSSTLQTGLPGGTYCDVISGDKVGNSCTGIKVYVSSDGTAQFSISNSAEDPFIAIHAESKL
# Method: To this reaction mixture, 1% starch solution was added (500 μl in 0.2 mM phosphate buffer, pH 6.8) and incubated for an additional 10 min. 1 ml of DNS (di-nitro-salicylic-acid) color reagent was added to arrest the reaction. The reaction mixture was boiled for 10 min and then brought to ambient temperature. The absorbance of the resulting mixture was measured at 540 nm and the inhibitory activity was calculated using the following formula.
# % Inhibition =(Astandard -Asample)/Astandard× 100
# The IC50 was calculated using non-linear regression plot of % inhibition versus concentrations with the help of GraphPad Prism, version 6.0.
# [2] = tested on: 3T3 (mouse fibroblast) cells; assay: MTT assay for cytotoxicity analysis; assay type: cell-based; settings: for cytotoxic effects against 3T3 (mouse fibroblast) cells, in words: MTT, 1.875-30 µM; for inhibition at 1.875 µM / inhibition at 3.75 µM / inhibition at 7.5 µM / inhibition at 15 µM / inhibition at 30 µM: Mus musculus, NIH3T3, 48 h, 3T3 cells, 48 hr, read-out: % Growth Inhibition
# Method: Cytotoxic activity of compounds was evaluated in 96-well flat-bottomed microplates by using the standard MTT (3-[4, 5-dimethylthiazole-2-yl]-2, 5-diphenyl-tetrazolium bromide) colorimetric assay ([34]). For this purpose, 3T3 (mouse fibroblast, ATCC # CRL-1658, Lot # 59049195) cells were cultured in Dulbecco’s Modified Eagle Medium, supplemented with 5% fetal bovine serum (FBS), 100 IU/ml penicillin, and 100 µg/ml streptomycin in 75 cm^2 flasks, and kept in a 5% CO2 incubator at 37 °C. Exponentially growing cells were harvested, counted with a hemocytometer, and diluted with a particular medium. Cell culture with concentration of 5x10^4 cells/ml was prepared and introduced (100 µl/well) into 96-well plates. After overnight incubation, the medium was removed and 200 µl of fresh medium was added with various oxadiazole concentrations (30 µM, 15 µM, 7.5 µM, 3.75 µM, and 1.875 µM). After 48 hr, 200 µl MTT (0.5 mg/ml) was added to each well and incubated further for 4 hr. Subsequently, 100 µl of DMSO was added to each well. The extent of MTT reduction to formazan within cells was calculated by measuring the absorbance at 540 nm, using a microplate reader (Spectra Max Plus, Molecular Devices, CA, USA). The cytotoxicity was recorded as concentration causing 50% growth inhibition (IC50) for 3T3 cells. The percent inhibition was calculated by using the following formula;
# % Inhibition=100-((mean of O.D of test compound-mean of O.D of negative control)/ (mean of O.D of positive control - mean of O.D of negative control) *100).
# The results (% inhibition) were processed by using SoftMax Pro software (Molecular Device, USA).
% Inhibition (alpha-glucosidase) (α-glucosidase) [%],IC50 µg/ml ± SEM (alpha-glucosidase inhibition) (α-glucosidase),% Inhibition (alpha-amylase) [1] [%],IC50 [1] [µM],melting point [°C],SMILES,"cytotoxic effects against 3T3 (mouse fibroblast) cells, in words [2]",inhibition at 1.875 µM [2] [%],inhibition at 3.75 µM [2] [%],inhibition at 7.5 µM [2] [%],inhibition at 15 µM [2] [%],inhibition at 30 µM [2] [%]
40.2,68.02 ± 0.43 µg/mL,40.2,279,170,"OCCSc1nnc(-c2cccc(I)c2)o1 [Compound 5e, 2-{[5-(3-iodophenyl)-1,3,4-oxadiazol-2-yl]sulfanyl} ethan-1-ol]",,,,,,
9.04,273.06 ± 0.04 µg/mL,19.04,772,265 to 270,"OCCSc1nnc(-c2cc(O)c(O)c(O)c2)o1 [Compound 5f, 5-{5-[(2-hydroxyethyl)sulfanyl]-1,3,4-oxadiazol-2-yl} benzene-1,2,3-triol]",,,,,,
36.16,80.8 ± 0.52 µg/mL,92.16,58.9,207 to 210,"OCCSc1nnc(-c2ccccc2)o1 [Compound 5g, 2-[(5-phenyl-1,3,4-oxadiazol-2-yl)sulfanyl] ethan-1-ol]",negligible cytotoxic effects,~1.5,3,8,10,19.6
98.9,11.47 ± 0.02 µg/mL,,,,"OCCN1C[C@H](O)[C@@H](O)[C@H](O)[C@H]1CO [Miglitol, reference compound]",,,,,,

# The remaining lines, values behind:
SMILES,% Inhibition (alpha-glucosidase) (α-glucosidase) [%],IC50 µg/ml ± SEM (alpha-glucosidase inhibition) (α-glucosidase),% Inhibition (alpha-amylase) [1] [%],IC50 [1] [µM],melting point [°C],"cytotoxic effects against 3T3 (mouse fibroblast) cells, in words [2]",inhibition at 1.875 µM [2] [%],inhibition at 3.75 µM [2] [%],inhibition at 7.5 µM [2] [%],inhibition at 15 µM [2] [%],inhibition at 30 µM [2] [%]
"OCCSc1nnc(-c2ccccn2)o1 [4a(a), 2-{[5-(pyridin-2-yl)-1,3,4-oxadiazol-2-yl]sulfanyl} ethan-1-ol]",97.2,15.45 ± 0.20 µg/mL,9.42,1300,,,,,,,
"OCCSc1nnc(-c2cccnc2)o1 [4a(b), 2-{[5-(pyridin-3-yl)-1,3,4-oxadiazol-2-yl]sulfanyl} ethan-1-ol]",,No effect,26,831,,,,,,,
"OCCSc1nnc(-c2ccncc2)o1 [4a(c), 2-{[5-(pyridin-4-yl)-1,3,4-oxadiazol-2-yl]sulfanyl} ethan-1-ol]",16.3,299.11 ± 0.31 µg/mL,3.21,1770,180,,,,,,
"OCCSc1nnc(-c2ccccc2O)o1 [Compound 5a, 2-{5-[(2-hydroxyethyl)sulfanyl]-1,3,4-oxadiazol-2-yl} phenol]",98.14,12.27 ± 0.41 µg/mL,56.41,252,165 to 170,negligible cytotoxic effects,3,5,12,16,26.2
"OCCSc1nnc(-c2ccc(O)cc2)o1 [Compound 5b, 4-{5-[(2-hydroxyethyl)sulfanyl]-1,3,4-oxadiazol-2-yl} phenol]",41.8,62.01 ± 0.92 µg/mL,50.11,272,,,,,,,
"OCCSc1nnc(-c2ccccc2Cl)o1 [Compound 5c, 2-{[5-(2-chlorophenyl)-1,3,4-oxadiazol-2-yl]sulfanyl} ethan-1-ol]",40.04,69.04 ± 0.27 µg/mL,49.41,267,165,,,,,,
"OCCSc1nnc(-c2cccc(Br)c2)o1 [Compound 5d, 2-{[5-(3-bromophenyl)-1,3,4-oxadiazol-2-yl]sulfanyl} ethan-1-ol]",39.7,73.61 ± 0.02 µg/mL,43.6,298,186 to 190,,,,,,
